Where two headings read alike, the source gives them in different places.
Legend:
[1] = target: Tb-labeled inactive PDGFRβ (Homo sapiens (Human), UniProt P09619); experiment: PDGFRβ LanthaScreen Assay; assay type: binding; settings: read-out: PDGFR Lantha IC50
[2] = target: PDGFRβ (Rattus norvegicus (Rat), UniProt Q05030); experiment: PDGFRβ Cellular Assay (PDGFRb P-Y751 HTRF in A10 cells stimulated with PDGF-BB); assay type: cell-based
Method in brief: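 Phospho-Y751 PDGFRβ was measured by HTRF in lysates of A10 rat cells. Cells received compound for 3 hours before PDGF-BB stimulation (100 ng/mL working stock).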

[3] = target: VEGFR2, unphosphorylated (Homo sapiens (Human), UniProt P35968); experiment: VEGFR ADP GLO Assay; assay type: biochemical
Chain of VEGFR2, unphosphorylated (P35968 20-1356): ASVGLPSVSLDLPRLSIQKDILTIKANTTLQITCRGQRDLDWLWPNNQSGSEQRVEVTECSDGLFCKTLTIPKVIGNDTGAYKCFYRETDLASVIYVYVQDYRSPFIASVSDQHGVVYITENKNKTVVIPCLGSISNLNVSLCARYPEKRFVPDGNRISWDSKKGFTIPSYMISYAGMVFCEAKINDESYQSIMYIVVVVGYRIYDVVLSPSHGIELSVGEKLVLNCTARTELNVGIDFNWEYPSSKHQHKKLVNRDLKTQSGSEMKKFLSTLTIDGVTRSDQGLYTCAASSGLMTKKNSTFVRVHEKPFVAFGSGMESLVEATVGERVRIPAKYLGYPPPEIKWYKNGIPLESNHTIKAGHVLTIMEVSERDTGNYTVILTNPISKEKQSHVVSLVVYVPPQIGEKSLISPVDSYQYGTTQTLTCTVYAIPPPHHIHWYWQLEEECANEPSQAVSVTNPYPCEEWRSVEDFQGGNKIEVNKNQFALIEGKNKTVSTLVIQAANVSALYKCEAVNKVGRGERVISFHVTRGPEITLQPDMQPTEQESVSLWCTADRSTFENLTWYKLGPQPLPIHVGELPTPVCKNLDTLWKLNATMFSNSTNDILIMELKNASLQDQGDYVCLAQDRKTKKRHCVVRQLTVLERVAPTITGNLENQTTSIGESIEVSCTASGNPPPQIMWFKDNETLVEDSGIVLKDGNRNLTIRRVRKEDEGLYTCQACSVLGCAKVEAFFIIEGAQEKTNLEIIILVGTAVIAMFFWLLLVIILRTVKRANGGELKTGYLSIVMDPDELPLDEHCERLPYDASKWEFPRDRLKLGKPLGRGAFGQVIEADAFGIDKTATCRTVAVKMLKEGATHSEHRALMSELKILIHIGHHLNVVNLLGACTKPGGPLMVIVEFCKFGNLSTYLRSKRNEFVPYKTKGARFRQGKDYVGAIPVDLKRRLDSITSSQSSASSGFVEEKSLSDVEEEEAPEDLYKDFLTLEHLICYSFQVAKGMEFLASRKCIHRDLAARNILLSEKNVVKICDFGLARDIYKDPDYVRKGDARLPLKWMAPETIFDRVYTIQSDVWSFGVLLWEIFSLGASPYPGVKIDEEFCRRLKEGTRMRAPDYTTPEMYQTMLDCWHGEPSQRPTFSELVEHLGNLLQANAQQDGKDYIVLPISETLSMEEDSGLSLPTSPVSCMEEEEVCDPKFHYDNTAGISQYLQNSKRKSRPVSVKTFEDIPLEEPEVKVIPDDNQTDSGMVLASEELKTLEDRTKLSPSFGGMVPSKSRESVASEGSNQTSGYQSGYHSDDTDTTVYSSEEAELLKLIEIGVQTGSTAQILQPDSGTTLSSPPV

Chain of Tb-labeled inactive PDGFRβ (P09619 33-1106): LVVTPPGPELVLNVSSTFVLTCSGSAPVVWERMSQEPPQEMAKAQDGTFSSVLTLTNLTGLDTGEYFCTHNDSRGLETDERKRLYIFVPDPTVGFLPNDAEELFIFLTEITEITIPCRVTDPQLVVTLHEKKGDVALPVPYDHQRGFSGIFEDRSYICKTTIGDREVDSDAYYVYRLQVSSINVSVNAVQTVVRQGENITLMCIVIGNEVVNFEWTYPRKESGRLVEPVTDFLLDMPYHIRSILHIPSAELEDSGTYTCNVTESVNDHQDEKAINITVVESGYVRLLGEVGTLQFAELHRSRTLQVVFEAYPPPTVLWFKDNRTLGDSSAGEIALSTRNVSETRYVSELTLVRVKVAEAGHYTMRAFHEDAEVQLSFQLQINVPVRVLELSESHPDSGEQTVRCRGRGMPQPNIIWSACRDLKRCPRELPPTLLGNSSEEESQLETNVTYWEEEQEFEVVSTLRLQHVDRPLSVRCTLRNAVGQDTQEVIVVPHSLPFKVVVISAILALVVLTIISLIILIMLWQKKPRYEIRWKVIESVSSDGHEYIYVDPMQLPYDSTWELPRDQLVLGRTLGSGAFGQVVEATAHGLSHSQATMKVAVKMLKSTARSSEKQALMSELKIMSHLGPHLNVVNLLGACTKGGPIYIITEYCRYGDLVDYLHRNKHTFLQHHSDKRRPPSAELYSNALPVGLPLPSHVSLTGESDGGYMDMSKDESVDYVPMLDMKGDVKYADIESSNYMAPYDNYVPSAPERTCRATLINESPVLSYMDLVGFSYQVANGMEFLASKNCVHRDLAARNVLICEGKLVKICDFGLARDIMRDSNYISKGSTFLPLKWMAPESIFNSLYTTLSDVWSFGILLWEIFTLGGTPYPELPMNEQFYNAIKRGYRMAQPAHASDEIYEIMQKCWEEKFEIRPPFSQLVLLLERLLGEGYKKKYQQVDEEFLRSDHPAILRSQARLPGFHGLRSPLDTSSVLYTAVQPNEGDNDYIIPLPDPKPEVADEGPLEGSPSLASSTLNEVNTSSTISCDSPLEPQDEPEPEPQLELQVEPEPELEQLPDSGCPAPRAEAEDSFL
Chain of PDGFRβ (Q05030 32-1097): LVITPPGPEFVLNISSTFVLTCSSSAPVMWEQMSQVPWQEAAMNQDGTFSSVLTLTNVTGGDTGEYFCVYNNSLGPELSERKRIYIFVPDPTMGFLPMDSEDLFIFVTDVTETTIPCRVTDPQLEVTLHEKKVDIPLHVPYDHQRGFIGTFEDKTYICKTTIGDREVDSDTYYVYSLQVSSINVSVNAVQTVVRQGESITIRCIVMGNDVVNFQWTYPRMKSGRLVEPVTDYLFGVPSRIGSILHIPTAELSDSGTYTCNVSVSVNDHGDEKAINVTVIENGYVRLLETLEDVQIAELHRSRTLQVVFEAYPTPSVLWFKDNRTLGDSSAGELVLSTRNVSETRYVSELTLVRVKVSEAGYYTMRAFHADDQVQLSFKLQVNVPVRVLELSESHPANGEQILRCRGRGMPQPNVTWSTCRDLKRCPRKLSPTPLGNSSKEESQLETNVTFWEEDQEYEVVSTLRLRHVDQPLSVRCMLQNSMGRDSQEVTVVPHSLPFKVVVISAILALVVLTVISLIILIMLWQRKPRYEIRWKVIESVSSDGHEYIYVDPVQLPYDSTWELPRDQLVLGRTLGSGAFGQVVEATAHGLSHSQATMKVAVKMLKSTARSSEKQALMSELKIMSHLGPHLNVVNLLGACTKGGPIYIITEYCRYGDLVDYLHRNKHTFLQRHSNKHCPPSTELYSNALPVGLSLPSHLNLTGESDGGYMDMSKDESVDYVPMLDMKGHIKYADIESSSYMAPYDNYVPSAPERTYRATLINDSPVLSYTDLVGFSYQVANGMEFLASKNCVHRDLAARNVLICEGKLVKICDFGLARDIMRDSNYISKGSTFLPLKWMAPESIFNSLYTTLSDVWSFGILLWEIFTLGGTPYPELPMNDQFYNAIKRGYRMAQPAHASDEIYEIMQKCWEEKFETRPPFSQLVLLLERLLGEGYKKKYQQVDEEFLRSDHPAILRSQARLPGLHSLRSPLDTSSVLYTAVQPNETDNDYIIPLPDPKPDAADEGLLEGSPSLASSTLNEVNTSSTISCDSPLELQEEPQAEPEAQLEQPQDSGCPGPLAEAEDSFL

| Compound | IC50 [1] [nM] | IC50 ([2]; PDGFR Cellular IC50) [nM] | IC50 [3] [nM] | IC50 ([2]; read-out: PDGFR Cellular IC50) [nM] |
| --- | --- | --- | --- | --- |
| Cc1ncc(NC(=O)CN2CCCC[C@@H]2C)cc1NC(=O)c1cnn2cc(-c3cnn(CCO)c3)sc12 [Example 34, (S)-2-(1-(2-hydroxyethyl)-1H-pyrazol-4-yl)-N-(2-methyl-5-(2-(2-methyl-piperidin-1-yl)acetamido)pyridin-3-yl)pyrazolo[5,1-b]thiazole-7-carboxamide] | 13.4 | 30.3 | > 7500 | – |
| Cc1ncc(NC(=O)CN2CC(C)(C)C2)cc1NC(=O)c1cnn2cc(-c3cnc4n3CCOC4)sc12 [Example 415, 2-(5,6-dihydro-8H-imidazo[2,1-c][1,4]oxazin-3-yl)-N-(5-(2-(3,3-dimethylazetidin-1-yl)acetamido)-2-methylpyridin-3-yl)pyrazolo[5,1-b]thiazole-7-carboxamide] | 6.6 | – | > 7500 | 41.5 |
| Cc1cc(C(=O)NCCN2CCCC2(C)C)sc1NC(=O)c1cnn2cc(-c3cccnc3)sc12 [Example 36, N-(5-((2-(2,2-dimethylpyrrolidin-1-yl)ethyl)carbamoyl)-3-methylthiophen-2-yl)-2-(pyridin-3-yl)pyrazolo[5,1-b]thiazole-7-carboxamide] | 19.3 | – | > 7500 | 9 |
| Cc1ncc(NC(=O)CN2CCC2)cc1NC(=O)c1cnn2cc(-c3cnn4c3OCCC4)sc12 [Example 412, N-(5-(2-(azetidin-1-yl)acetamido)-2-methylpyridin-3-yl)-2-(6,7-dihydro-5H-pyrazolo[5,1-b][1,3]oxazin-3-yl)pyrazolo[5,1-b]thiazole-7-carboxamide] | 34.6 | – | > 7500 | 77.2 |
| Cc1ncc(NC(=O)CN2CCC[C@@H]2C)cc1NC(=O)c1cnn2cc(-c3cnn4c3OCCC4)sc12 [Example 413, (S)-2-(6,7-dihydro-5H-pyrazolo[5,1-b][1,3]oxazin-3-yl)-N-(2-methyl-5-(2-(2-methylpyrrolidin-1-yl)acetamido)pyridin-3-yl)pyrazolo[5,1-b]thiazole-7-carboxamide] | 2.9 | – | > 7500 | 3.4 |
| COC1(C)CN(CC(=O)Nc2cnc(C)c(NC(=O)c3cnn4cc(-c5cn(C)nc5C)sc34)c2)C1 [Example 442, 2-(1,3-Dimethyl-1H-pyrazol-4-yl)-N-(5-(2-(3-methoxy-3-methylazetidin-1-yl)acetamido)-2-methylpyridin-3-yl)pyrazolo[5,1-b]thiazole-7-carboxamide] | 3.1 | – | > 7500 | 8.1 |
| Cc1ncc(NC(=O)CC2CNC2)cc1NC(=O)c1cnn2cc(-c3cnn4c3CCC4)sc12 [Example 426, N-(5-(2-(azetidin-3-yl)acetamido)-2-methylpyridin-3-yl)-2-(5,6-dihydro-4H-pyrrolo[1,2-b]pyrazol-3-yl)pyrazolo[5,1-b]thiazole-7-carboxamide] | 482 | – | > 7500 | > 2000 |
| Cc1ncc(NC(=O)CN2CC(C)(C)C2)cc1NC(=O)c1cnn2cc(-c3cncnc3)sc12 [Example 429, N-(5-(2-(3,3-dimethylazetidin-1-yl)acetamido)-2-methylpyridin-3-yl)-2-(pyrimidin-5-yl)pyrazolo[5,1-b]thiazole-7-carboxamide] | 185 | – | > 7500 | 30.9 |
| Cc1ncc(NC(=O)CN2CC(C)(C)C2)cc1NC(=O)c1cnn2cc(-c3cccnc3OC(F)(F)F)sc12 [Example 437, N-(5-(2-(3,3-dimethylazetidin-1-yl)acetamido)-2-methylpyridin-3-yl)-2-(2-(trifluoromethoxy)pyridin-3-yl)pyrazolo[5,1-b]thiazole-7-carboxamide] | 4.6 | – | > 7500 | 6 |
| Cc1ncc(NC(=O)CNCC(C)C)cc1NC(=O)c1cnn2cc(-c3cnn4c3OCCC4)sc12 [Example 414, 2-(6,7-dihydro-5H-pyrazolo[5,1-b][1,3]oxazin-3-yl)-N-(5-(2-(isobutylamino)acetamido)-2-methylpyridin-3-yl)pyrazolo[5,1-b]thiazole-7-carboxamide] | 3.3 | – | 5100 | 6.2 |
| Cc1ncc(NC(=O)CNC2CCC2)cc1NC(=O)c1cnn2cc(-c3cnn4c3CCC4)sc12 [Example 471, N-(5-(2-(cyclobutylamino)acetamido)-2-methylpyridin-3-yl)-2-(5,6-dihydro-4H-pyrrolo[1,2-b]pyrazol-3-yl)pyrazolo[5,1-b]thiazole-7-carboxamide] | 1 | – | > 7500 | 3.4 |
| CCCNCC(=O)Nc1cnc(C)c(NC(=O)c2cnn3cc(-c4cnn5c4OCCC5)sc23)c1 [Example 455, 2-(6,7-dihydro-5H-pyrazolo[5,1-b][1,3]oxazin-3-yl)-N-(2-methyl-5-(2-(propylamino)acetamido)pyridin-3-yl)pyrazolo[5,1-b]thiazole-7-carboxamide] | 3.3 | 15 | > 7500 | – |
| Cc1cc(C(=O)NCCN2CCCC23CC3)sc1NC(=O)c1cnn2cc(-c3cnn(C)c3)sc12 [Example 37, N-(5-((2-(4-azaspiro[2.4]heptan-4-yl)ethyl)carbamoyl)-3-methylthiophen-2-yl)-2-(1-methyl-1H-pyrazol-4-yl)pyrazolo[5,1-b]thiazole-7-carboxamide] | 892 | – | > 7500 | 11.2 |
| Cc1ncc(NC(=O)CN2CCC23CCC3)cc1NC(=O)c1cnn2cc(-c3cnn4c3OCCC4)sc12 [Example 408, N-(5-(2-(1-azaspiro[3.3]heptan-1-yl)acetamido)-2-methylpyridin-3-yl)-2-(6,7-dihydro-5H-pyrazolo[5,1-b][1,3]oxazin-3-yl)pyrazolo[5,1-b]thiazole-7-carboxamide] | 1.8 | – | > 7500 | 1.7 |
| Cc1ncc(NC(=O)CN2CCCC2(C)C)cc1NC(=O)c1cnn2cc(-c3cnn(CCO)c3)sc12 [Example 447, N-(5-(2-(2,2-dimethylpyrrolidin-1-yl)acetamido)-2-methylpyridin-3-yl)-2-(1-(2-hydroxyethyl)-1H-pyrazol-4-yl)pyrazolo[5,1-b]thiazole-7-carboxamide] | 3.7 | – | > 7500 | 12.4 |
| Cc1ncc(NC(=O)CNC2CCCC2)cc1NC(=O)c1cnn2cc(-c3cnn4c3CCC4)sc12 [Example 422, N-(5-(2-(cyclopentylamino)acetamido)-2-methylpyridin-3-yl)-2-(5,6-dihydro-4H-pyrrolo[1,2-b]pyrazol-3-yl)pyrazolo[5,1-b]thiazole-7-carboxamide] | 1.1 | – | > 7500 | 2.6 |
| Cc1ncc(NC(=O)CN2CC(C)(C)C2)cc1NC(=O)c1cnn2cc(-c3c(C)nn(C4COC4)c3C)sc12 [Example 425, 2-(3,5-dimethyl-1-(oxetan-3-yl)-1H-pyrazol-4-yl)-N-(5-(2-(3,3-dimethylazetidin-1-yl)acetamido)-2-methylpyridin-3-yl)pyrazolo[5,1-b]thiazole-7-carboxamide] | 6.8 | 11.7 | > 7500 | – |
| Cc1ncc(NC(=O)CN2CC(C)(C)C2)cc1NC(=O)c1cnn2cc(-c3cnn(C)c3C)sc12 [Example 434, 2-(1,5-Dimethyl-1H-pyrazol-4-yl)-N-(5-(2-(3,3-dimethylazetidin-1-yl)acetamido)-2-methylpyridin-3-yl)pyrazolo[5,1-b]thiazole-7-carboxamide] | 2.2 | – | 5220 | 2.4 |

— US20240109917A1 (ACTELION PHARMACEUTICALS LTD, priority 2020, published 2024)
